Activity data for 1 compound are collected here from ChEMBL document CHEMBL2074133, “Effect of phenobarbital on the expression of bile salt and organic anion transporters of rat liver” (J Hepatol, 2001).

What all share (format): functional, organism-based, Sprague-Dawley
Data set [1] has as its target T1, Solute carrier organic anion transporter family member 1A1 (Rattus norvegicus, UniProt P46720).
T1 sequence (P46720 whole entry): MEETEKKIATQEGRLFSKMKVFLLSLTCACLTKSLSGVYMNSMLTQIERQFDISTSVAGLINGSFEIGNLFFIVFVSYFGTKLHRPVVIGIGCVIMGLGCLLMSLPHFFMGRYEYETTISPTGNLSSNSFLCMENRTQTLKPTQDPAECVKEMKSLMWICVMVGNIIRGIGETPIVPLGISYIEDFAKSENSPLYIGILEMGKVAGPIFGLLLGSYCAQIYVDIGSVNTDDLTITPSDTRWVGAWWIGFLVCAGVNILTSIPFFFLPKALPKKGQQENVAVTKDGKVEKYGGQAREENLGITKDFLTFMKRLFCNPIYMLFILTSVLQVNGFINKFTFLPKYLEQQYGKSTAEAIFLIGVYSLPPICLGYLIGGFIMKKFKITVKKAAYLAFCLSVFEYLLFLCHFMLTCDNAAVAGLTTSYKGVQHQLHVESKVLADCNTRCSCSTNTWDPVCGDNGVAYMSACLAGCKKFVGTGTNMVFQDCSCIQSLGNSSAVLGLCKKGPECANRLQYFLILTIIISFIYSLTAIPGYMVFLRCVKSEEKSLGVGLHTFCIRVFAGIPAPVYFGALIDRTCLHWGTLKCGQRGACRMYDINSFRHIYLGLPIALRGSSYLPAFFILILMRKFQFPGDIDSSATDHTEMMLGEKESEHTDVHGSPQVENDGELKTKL
Briefly: (§1) TP_TRANSPORTER: Northern blot in vivo SD rat, liver.

The target in data set [2] is T2, Solute carrier organic anion transporter family member 1A4 (Rattus norvegicus, UniProt O35913).
T2 sequence (O35913 whole entry): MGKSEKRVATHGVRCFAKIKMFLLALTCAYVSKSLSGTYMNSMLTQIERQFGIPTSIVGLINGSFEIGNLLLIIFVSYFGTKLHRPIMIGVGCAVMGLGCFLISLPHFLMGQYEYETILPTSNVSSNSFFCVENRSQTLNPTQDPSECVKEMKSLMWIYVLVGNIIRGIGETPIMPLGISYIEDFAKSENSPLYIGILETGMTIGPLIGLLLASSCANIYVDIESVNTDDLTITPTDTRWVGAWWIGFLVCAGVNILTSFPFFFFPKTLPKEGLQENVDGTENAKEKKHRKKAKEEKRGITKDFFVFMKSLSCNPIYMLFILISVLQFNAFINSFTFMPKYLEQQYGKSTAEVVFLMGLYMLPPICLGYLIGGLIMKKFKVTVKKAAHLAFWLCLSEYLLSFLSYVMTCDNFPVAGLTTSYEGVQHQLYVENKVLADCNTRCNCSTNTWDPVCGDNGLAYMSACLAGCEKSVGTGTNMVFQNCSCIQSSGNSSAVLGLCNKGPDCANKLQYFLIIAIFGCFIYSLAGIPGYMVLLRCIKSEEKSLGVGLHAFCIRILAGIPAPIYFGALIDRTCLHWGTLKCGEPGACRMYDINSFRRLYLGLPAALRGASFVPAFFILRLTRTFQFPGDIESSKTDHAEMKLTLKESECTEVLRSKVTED
The description is as §1.

Data set [3] addresses T1, Solute carrier organic anion transporter family member 1A1. Put plainly: (§2) TP_TRANSPORTER: Western in vivo SD rat, liver.
The target of data set [4] is T2, Solute carrier organic anion transporter family member 1A4. The data set is described as §2.

Each structure is given as a SMILES string.

On to `CCC1(c2ccccc2)C(=O)NC(=O)NC1=O` [PHENOBARBITAL], for which the Activity result is “is not an inducer [-]” in data set [1], “inducer [+]” in data set [2], “is not an inducer [-]” in data set [3] and “inducer [+]” in data set [4].
